Data from patent US20250041415A1, “CYTOTOXIC INNATE LYMPHOID CELL AND USES THEREOF” (Umoja Biopharma, Inc., priority 2021, published 2025).

Key:
[1] = test system: iPSC-derived lymphoid progenitor and precursor cells; assay: RACR-driven differentiation and expansion of iCIL cells from Day 26 lymphoid progenitors; type: cell-based, human; details: AP21967 100 nM, no other cytokine
Text: The RACR-system was utilized for differentiation to iPSC-derived CIL cells (iCIL cells). The iPSC cell line ATCC-BXS0117 (ATCC #ACS-1031) was differentiated into lymphoid progenitors through the STEMdiff NK cell kit ([…]® Technologies, #100-0170) as described in Example 2 above, up until the Day 26 timepoint. The percentage of cells containing common lymphoid progenitors (CD45+/CD5+/CD7+), CIL precursors (CD45+/CD5−/CD7+), and early CIL cells (CD45+/CD5−/CD7+/CD56+) is seen in FIG. 3D with ˜50% of the cells presenting as CIL precursors and ˜25% of total cells presenting as early CIL cells. […] Activation beads (#130-094-483) were added to cells at a 2:1 ratio and cells were placed in 37° C. incubator overnight to increase transduction of cells.
The cells were engineered with a polynucleotide encoding the RACR synthetic cytokine as described in Example 1, a Tag (anti-FITC) CAR (SEQ ID NO: 13), and an FRB domain for expression of FRB as a diffusible soluble protein in the engineered cell, in which the components were separated by a cleavable linker. The polynucleotide construct payload is designated Tag (anti-FITC) CAR-P2A-FRB-P2A-RACR. […] An aliquot of cells was collected weekly, counted on the Vicell Blu automated cell counter, and stained for CD16 clone 3G8, CD56 clone HCD56, CD45 clone 2D1. […]

[2] = test system: common lymphoid progenitors (iPSC line WTC11); assay: RACR-signaling replacing common gamma chain cytokines in CLP to CIL differentiation; type: cell-based, human; details: 4 nM
[3] = test system: Vδ2+ T cells transduced with RACR-FRB-mCherry; assay: RACR-expansion of blood-derived Vδ2+ T cells; type: cell-based, human; details: 10 nM, days 14 and 21
Description: On day 14, an aliquot of the cells was collected and washed, stained for V32, and RACR transduction was measured by mCherry. Percent Vδ2+ RACR+ cells, as well as number of transduced V32+ cells measured by counting beads was assessed by detection of V82 stain and mCherry via flow cytometry. Similarly, on day 21, an aliquot of cells was again measured for percent and number of Vδ2+ RACR+ cells via flow cytometry.

[4] = test system: PSMA-positive human prostate cancer cells; details: DUPA-(99m)Tc; cited from earlier work

| Structure (SMILES) | expansion (total number of TagCAR positive cells) [1] | percent of RACR-CAR+ CD56+ cells ([2]; Day 40, all four media conditions) | fold change in RACR-CAR+ cells ([2]; media with UM729 alone (None)) | percentage and total number of Vδ2+ RACR+ cells [3] | Kd [4] |
| --- | --- | --- | --- | --- | --- |
| CO[C@@H]1C[C@H](C[C@@H](C)C2CC(=O)[C@H](C)/C=C(\C)[C@@H](O)[C@@H](OC)C(=O)[C@H](C)C[C@@H](C)/C=C/C=C/C=C(\C)[C@H](c3c[nH]c4c(C)cccc34)C[C@H]3CC[C@@H](C)[C@@](O)(O3)C(=O)C(=O)N3CCCC[C@H]3C(=O)O2)CC[C@@H]1O (some centres unmarked) [AP21967] | sufficient to drive iCIL expansion | increase in the percent of RACR-CAR+ CD56+ cells | largest fold change | increased in both percentage and total number of cells | – |
| O=C(O)CC[C@H](NC(=O)N[C@@H](CCC(=O)O)C(=O)O)C(=O)O [DUPA] | – | – | – | – | 14 nM |
